Results on 1 molecule are retold here after article PMC6470523, “Introduction of Nonacidic Side Chains on 6-Ethylcholane Scaffolds in the Identification of Potent Bile Acid Receptor Agonists with Improved Pharmacokinetic Properties” (Molecules, 2019).

Converted amounts (≈) assume the structure as drawn.

One series addresses T1, human FXR (Homo sapiens, UniProt Q96RI1).
T1 construct: expressed in transfected cells; host or cells: HepG2
T1 sequence (Q96RI1 1-486): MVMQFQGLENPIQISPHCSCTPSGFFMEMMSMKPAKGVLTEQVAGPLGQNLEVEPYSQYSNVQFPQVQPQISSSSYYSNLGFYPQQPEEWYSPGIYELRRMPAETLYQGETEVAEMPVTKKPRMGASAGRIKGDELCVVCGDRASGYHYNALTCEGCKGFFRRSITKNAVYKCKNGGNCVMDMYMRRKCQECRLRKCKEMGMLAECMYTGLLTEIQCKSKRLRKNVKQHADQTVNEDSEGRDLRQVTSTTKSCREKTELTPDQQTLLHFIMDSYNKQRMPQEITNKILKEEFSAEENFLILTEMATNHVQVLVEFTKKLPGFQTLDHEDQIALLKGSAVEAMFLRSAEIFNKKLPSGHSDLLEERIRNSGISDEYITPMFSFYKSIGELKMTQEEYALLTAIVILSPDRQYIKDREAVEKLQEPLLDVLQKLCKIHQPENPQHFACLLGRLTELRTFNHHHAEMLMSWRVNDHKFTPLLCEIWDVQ
T1 sequence (P19793 1-462 partner): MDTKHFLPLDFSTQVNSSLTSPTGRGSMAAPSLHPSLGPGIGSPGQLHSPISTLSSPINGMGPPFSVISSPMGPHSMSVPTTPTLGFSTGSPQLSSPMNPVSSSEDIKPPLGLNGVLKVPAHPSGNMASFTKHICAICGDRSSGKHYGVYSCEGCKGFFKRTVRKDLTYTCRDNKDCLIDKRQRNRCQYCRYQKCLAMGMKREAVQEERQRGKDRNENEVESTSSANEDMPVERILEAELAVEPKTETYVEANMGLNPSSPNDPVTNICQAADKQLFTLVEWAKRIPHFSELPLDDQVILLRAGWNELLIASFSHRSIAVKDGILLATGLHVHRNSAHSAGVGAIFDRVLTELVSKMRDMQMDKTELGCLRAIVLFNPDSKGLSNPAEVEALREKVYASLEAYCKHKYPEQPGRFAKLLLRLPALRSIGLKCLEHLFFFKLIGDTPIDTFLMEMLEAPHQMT
In words: FXR transactivation luciferase reporter assay in HepG2 cells. It is filed as cell-based. As to conditions: HepG2 cells. As for the experimental part: To evaluate FXR mediated transactivation, HepG2 cells were transfected with 100 ng of human pSG5-FXR, 100 ng of human pSG5-RXR, 200 ng of the reporter vector p(hsp27)-TK-LUC containing the FXR response element IR1 cloned from the promoter of heat shock protein 27 (hsp27) and with 100 ng of pGL4.70 (Promega), a vector encoding the human Renilla gene. To evaluate GPBAR1 mediated transactivation, HEK293T cells were transfected with 200 ng of human pGL4.29 (Promega), a reporter vector containing a cAMP response element (CRE) that drives the transcription of the luciferase reporter gene luc2P, with 100 ng of pCMVSPORT6-human GPBAR1, and with 100 ng of pGL4.70. […] After treatments, 10 μL of cellular lysates were read using a Dual-Luciferase Reporter Assay System (Promega Italia srl, Milan, Italy) according manufacturer specifications using the Glomax20/20 luminometer (Promega Italia srl, Milan, Italy). Luciferase activities were assayed and normalized with Renilla activities.
At 18 h post stimulations, cellular lysates were assayed for luciferase and Renilla activities using the Dual-Luciferase Reporter Assay System (E1980, Promega Italia srl, Milan, Italy). Luminescence was measured using Glomax 20/20 luminometer (Promega Iralia srl, Milan, Italy). Luciferase activities were normalized with Renilla activities.
Background: In a reporter assay the amount or activity of a reporter protein is the signal.

Series [1] in a line: Aqueous solubility measurement (PBS pH 7.4, LC-MS). It counts as physicochemical. To be noted: aqueous buffer, kinetic from dmso stock; aqueous solubility at pH 7.4 (PBS), 24 h room temperature. The procedure:
Chromatography was performed using an Alliance pump system coupled to a Q-ToF Premiere (Waters Co., Milford, MA, USA). The mixture was separated on a Luna 5 µm C8(2) 100° A 150 × 2 mm from Phenomenex. The mobile phase consisted of 0.2% formic acid (FA) in water as solvent A and 0.2% FA in acetonitrile as solvent B at a flow rate of 200 μL/min. The gradient was as follows: 0–2 min (70% A and 30% B), 2–20 min (5% A and 95% B), 20–30 min (70% A and 30% B). The detection of analytes was achieved by electrospray ionization (ESI) in the positive mode with the appropriate MS/MS transitions, if necessary.
Ten microliters of a 10 mM solution in DMSO of each compound was diluted either in 490 μL of PBS pH 7.4 or in organic solvent MeOH (in triplicate). The tubes were gently shaken 24 h at room temperature, then centrifuged for 5 min at 4000 rpm. 10 microliters of sample were diluted in 490 μL of MeOH. The solubility is determined by the ratio of mass signal area PBS/organic solvent.

Series [2] relates to pro-glucagon mRNA in GLUTag cells. In words: RT-PCR of GPBAR1 target gene pro-glucagon mRNA in GLUTag cells. To be noted: 1 and 10 µM, 18 h, Figure 2A. It counts as cell-based, murine. The procedure:
(§1) HepG2 and GLUTag cells were plated at 1 × 10^6 cells/well in a six well plate. […] Total RNA was isolated from cells using the TRIzol reagent according to the manufacturer's specifications (Invitrogen, Carlsbad, CA, USA). One microgram of purified RNA was treated with DNase-I and reverse transcribed with Superscript II (Invitrogen, Carlsbad, CA, USA). For Real Time PCR, 10 ng template was dissolved in 25 μL containing 200 nmol/L of each primer and 12.5 μL of 2× SYBR FAST Universal ready mix (Invitrogen, Carlsbad, CA, USA). All reactions were performed in triplicate, and the thermal cycling conditions were as follows: 2 min at 95 °C, followed by 40 cycles of 95 °C for 20 s and 60 °C for 30 s in StepOnePlus (Applied Biosystems, Foster City, CA, USA). The relative mRNA expression was calculated accordingly to the Ct method. Primers were designed using the software PRIMER31 using published data obtained from the NCBI database. Forward and reverse primer sequences were the following: human GAPDH, [NT]; human SHP, [NT]; mouse GAPDH, [NT]; mouse pro-glucagon, [NT]

The test system of the next series is SHP mRNA in HepG2 cells. Put plainly: RT-PCR of FXR target gene SHP mRNA in HepG2 cells. To be noted: 1 and 10 µM, 18 h, vs CDCA 10 µM, Figure 2B. It counts as cell-based, human. The procedure: as §1

Take `CCC1C(O)C2C3CCC(C(C)CO)C3(C)CCC2C2(C)CCCCC12` (stereo not drawn) [compound 6, 6α-Ethyl-7α-hydroxy-23,24-dinor-5β-cholan-22-ol]: on human FXR (dose response 0.5 to 50 µM, 18 h), the EC50 (as a rule, the midpoint of the concentration-response curve) is 13.7 ± 2.05 µM. In addition, at human FXR (maximum efficacy of compound (10 µM) relative to 6-ECDCA (1 µM) set as 100%, FRE transactivation), the “FXR Eff (%) vs 6-ECDCA” value turned out to be 33.4%. Moreover, the “FXR Eff (%) vs CDCA” value at human FXR (maximum efficacy of compound (10 µM) relative to CDCA (10 μM) set as 100%, FRE transactivation) is 185%. The solubility (commonly the concentration that dissolves in the medium under given conditions) at 24 h in series [1] turned out to be 162 µM (≈ 58.7 µg/mL). For the same molecule, the “pro-glucagon mRNA expression (in words)” value in series [2] is “failed to regulate”. In the series on SHP mRNA in HepG2 cells, the “SHP mRNA expression (in words)” value is recorded as “more potent than CDCA”.
